In patent US7132231B2, “Fluorescence polarization method for determining viral inhibitors” (priority 2001, dated 2006):

How the values were obtained:
[1] = molecular target: T1, Pol/UL42 long-chain DNA synthesis (HSV Pol + HSV MBP-UL42) (Human herpesvirus 1, UniProt P10226); assay: DNA polymerase long-chain synthesis assay; assay type: biochemical, herpes simplex virus; conditions: for ability of UL42 to stimulate long-chain synthesis by Pol: FIG. 4, BP1, BP3, BP5 at 30 μM, BP9 at 100, 75, 50, 25 and 12 μM
T1 construct: in presence of the whole catalytic subunit; made in house; host or cells: UL42 fusion: E. coli BL21(de3)pLysS
Protocol: (§1) DNA polymerase long-chain synthesis assay. Compounds which elicited a decrease in the fluorescence polarization, when compared to control values, were tested for the ability to inhibit long-chain DNA synthesis via inhibition of polymerase subunit assembly [Digard et al. 1995; Bridges et al. 2001] using a poly-A template (Amersham Pharmacia) and an oligo-dT primer (Roche Molecular Biochemicals) on which Pol alone adds only a few bases. Reaction mixtures (50 mM Tris-HCl pH 7.5, 100 mM ammonium sulfate, 3 mM MgCl2, 0.1 mM EDTA, 1 mM DTT, 4% Glycerol, 40 ug ml^−1 BSA, 100 ug ml^−1 primer/template, 50 uM α-^32P-TTP (111 TBq/mmol; NEN Life Science products)), contained 200 fmol of HSV Pol ([Weisshart et al. 1994]), 400 fmol of HSV MBP-UL42 and varying amounts of compound in a final volume of 25 ul. Reactions were carried out at 37° C. for 5 minutes and stopped by adding 5 ul of alkaline loading buffer (2mM EDTA, 50mM NaOH, 2.5% glycerol, 0.025% bromocresol green) and placing them on ice and were then loaded onto an 4% alkaline agarose gel. Gels were dried over night and exposed to phosphorescence screens (BioRad). Catalytic subunit activity filter binding assay. Compounds which elicited a decrease in fluorescence polarization were tested for the ability to inhibit DNA synthesis by Pol alone using the oligo-(dT)/poly-(dA) primer-template. Reaction mixtures (50 mM TrisHCl pH 7.5, 100 mM ammonium sulfate, 3 mM MgCl2, 0.1 mM EDTA, 1 mM DTT, 4% Glycerol, 40 μg ml^31 1 BSA, 100 μg ml^−1 primer/template, 50 μM α-^32P-TTP (111 TBq/mmol)) contained 200 fmol of HSV Pol and various amounts of each compound in a final volume of 25 μl. Reactions were carried out at 37° C. for 25 minutes and stopped by placing 10 μl of the reaction mix onto DE81 filter discs. After washes in sodium hydrogen phosphate, water and ethanol, they were counted in a liquid scintillation analyzer (Packard 1600 TR). Plaque reduction assay. Confluent monolayers of Vero (African green monkey kidney) cells in 12-well dishes were infected with herpes virus strain 17 dilutions such that each well received between 25 and 50 PFU. Diluted virus was absorbed to cells in 2 ml Dulbecco's modified Eagle's medium containing 2.5% newborn calf serum, 100 U penicillin G ml^−1 and 100 ug streptomycin sulfate ml^−1 for 1 hour at 37° C. in a humidified CO2 incubator. After absorption, triplicate infected cultures were overlaid with 2% methyl cellulose in Dulbecco's modified Eagle's medium containing 5% newborn calf serum, 100 U penicillin G ml^−1, 100 ug streptomycin sulfate ml^−1 and various concentrations of the compounds which elicited a decrease in fluorescence polarization and incubated at 37° C. in a humidified CO2 incubator. Plaques were visualized by crystal violet staining at 2 to 3 days post infection and were counted on the following day [Coen et al. 1985]. Cytotoxicity assays. Vero cells (5×10^4 cells per well) were seeded into 96-well plates and treated with various concentrations of the compounds (which elicited a decrease in the fluorescence polarization) for 72 h in quadruplicates. […] In parallel, equally compound-treated cells were fixed by adding 95% ethanol, stained with crystal violet solution and washed. After addition of 100 ul acidified ethanol (EtOH:HCl=99:1) to dissolve the crystal violet, the plates were read in the plate reader (Wallac). Viral yield assay. Vero cells were seeded into 96-well (5×10^4 cells per well) tissue culture plates in 0.2 ml Dulbecco's modified Eagle's medium containing 2.5% newborn calf serum and 100 U penicillin G ml^−1. Cultures were inoculated with HSV strain 17 at an MOI of 5 PFU per cell. The virus inoculum was replaced after two hours with medium containing dilution series of test compounds and left for 24 hours. After two cycles of freeze-thawing, each drug dilution row was transferred to a freshly seeded 96-well plate and serially 1:3 diluted over the whole plate. After two days, plaques were stained and counted under a microscope [Pritchard et al. 1990]. […]

[2] = Cytotoxicity assay (XTT / crystal violet); assay type: cell-based, African green monkey; conditions: monkey; for CC50 at 72 h: Vero cells, read-out: Toxicity IC50
Protocol: as §1, with “Vero cells were seeded into 96-well (5×10^4 cells per well) tissue culture plates in 0.2 ml Dulbecco's modified Eagle's medium containing 2.5% newborn calf serum and 100 U penicillin G ml^−1. Cultures were inoculated with HSV strain 17 at an MOI of 5 PFU per cell. The virus inoculum was replaced after two hours with medium containing dilution series of test compounds and left for 24 hours. After two cycles of freeze-thawing, each drug dilution row was transferred to a freshly seeded 96-well plate and serially 1:3 diluted over the whole plate.” left out

[3] = molecular target: T2, Pol/UL42 interaction (Oregon Green-peptide E / MBP-UL42Δ340) (Human herpesvirus 1, UniProt P10226); assay: Fluorescence polarization (FP) assay of Pol peptide/UL42 binding; set-up: species or system herpes simplex virus; conditions: for dose dependent change in the FP signal: serial dilution, FIG. 3
T2 construct: made in house; host or cells: E. coli BL21(de3)pLysS (UL42Δ340 fusion); peptide E synthetic
Protocol: Peptide probe and MBP-UL42. A peptide comprising the 18 C-terminal amino acids of HSV Pol (peptide E) was synthesized, N-terminally labeled with the pentafluorofluorescein-derivative Oregon Green 514 (Molecular Probes) and HPLC-purified. A truncated version of UL42 (UL42Δ340) was expressed in BL21(de3)pLysS E.coli as maltose binding protein fusion as described [Bridges et al. 2001] and purified over an amylose column (New England Biolabs). […] After elution with 10 mM maltose in 50 mM TrisHCl, 1 mM DTT, 0.5 mM EDTA, 4% Glycerol, 200 mM NaCl and Complete™ protease inhibitors (Roche Molecular Biochemicals), the protein was concentrated when necessary and stored at −80° C. until further use. After thawing, the purification buffer was exchanged to low fluorescent grade reagents (PanVera) and maltose was removed simultaneously using 10-DG Bio-Gel columns (BioRad). Fluorescence polarization assays. 1 nM of Oregon Green-peptide E was added to 7 uM MBP-UL42Δ340 and kept on ice until the mix was distributed into black 384-well plates (LJL Biosystems) in a total volume of 20 ul per well. The buffer conditions were 50 mM TrisHCl pH 7.5, 1 mM DTT, 0.5 mM EDTA, 150 mM NaCl, 4% Glycerol and 100 ug ml^−1 bovine gamma globulin. All chemicals were low fluorescent grade (PanVera).
Using this assay, the 16,320 compound Chembridge library that had been purchased by the Harvard Institute of Chemistry and Cell Biology (ICBB) was screened. Small molecules (5 mg ml^−1 in DMSO; ChemBridge) were screened using 384-pin arrays (Genetix), and 40 nl of each compound was transferred into every well. After incubation between 5 and 45 minutes at room temperature, the FP values were determined in the Analyst plate reader (LJL Biosystems). Chemicals for further testing were obtained from ChemBridge.
DNA polymerase long-chain synthesis assay. Compounds which elicited a decrease in the fluorescence polarization, when compared to control values, were tested for the ability to inhibit long-chain DNA synthesis via inhibition of polymerase subunit assembly [Digard et al. 1995; Bridges et al. 2001] using a poly-A template (Amersham Pharmacia) and an oligo-dT primer (Roche Molecular Biochemicals) on which Pol alone adds only a few bases. Reaction mixtures (50 mM Tris-HCl pH 7.5, 100 mM ammonium sulfate, 3 mM MgCl2, 0.1 mM EDTA, 1 mM DTT, 4% Glycerol, 40 ug ml^−1 BSA, 100 ug ml^−1 primer/template, 50 uM α-^32P-TTP (111 TBq/mmol; NEN Life Science products)), contained 200 fmol of HSV Pol ([Weisshart et al. 1994]), 400 fmol of HSV MBP-UL42 and varying amounts of compound in a final volume of 25 ul. Reactions were carried out at 37° C. for 5 minutes and stopped by adding 5 ul of alkaline loading buffer (2mM EDTA, 50mM NaOH, 2.5% glycerol, 0.025% bromocresol green) and placing them on ice and were then loaded onto an 4% alkaline agarose gel. Gels were dried over night and exposed to phosphorescence screens (BioRad). Catalytic subunit activity filter binding assay. Compounds which elicited a decrease in fluorescence polarization were tested for the ability to inhibit DNA synthesis by Pol alone using the oligo-(dT)/poly-(dA) primer-template. Reaction mixtures (50 mM TrisHCl pH 7.5, 100 mM ammonium sulfate, 3 mM MgCl2, 0.1 mM EDTA, 1 mM DTT, 4% Glycerol, 40 μg ml^31 1 BSA, 100 μg ml^−1 primer/template, 50 μM α-^32P-TTP (111 TBq/mmol)) contained 200 fmol of HSV Pol and various amounts of each compound in a final volume of 25 μl. Reactions were carried out at 37° C. for 25 minutes and stopped by placing 10 μl of the reaction mix onto DE81 filter discs. After washes in sodium hydrogen phosphate, water and ethanol, they were counted in a liquid scintillation analyzer (Packard 1600 TR). Plaque reduction assay. Confluent monolayers of Vero (African green monkey kidney) cells in 12-well dishes were infected with herpes virus strain 17 dilutions such that each well received between 25 and 50 PFU. […]

HSV Pol [4] = molecular target: T3, HSV Pol (Human herpesvirus 1, UniProt P04293, N46K); assay: Catalytic subunit activity filter binding assay (Pol alone); assay type: biochemical, herpes simplex virus; conditions: at higher compound concentrations, FIG. 5
T3 construct: in presence of the whole catalytic subunit
Protocol: as §1

HSV Pol [5] = molecular target: T4, HSV Pol (Human herpesvirus 1, UniProt P04293); assay: as above; assay type: biochemical, herpes simplex virus
T4 construct: in presence of the whole catalytic subunit
Protocol: as §1

HSV strain 17 = assay: Viral yield assay; assay type: cell-based, herpes simplex virus; conditions: Vero cells, MOI of 5, 24 h; read-out: ED90 viral yield reduction
Protocol: (§2) DNA polymerase long-chain synthesis assay. Compounds which elicited a decrease in the fluorescence polarization, when compared to control values, were tested for the ability to inhibit long-chain DNA synthesis via inhibition of polymerase subunit assembly [Digard et al. 1995; Bridges et al. 2001] using a poly-A template (Amersham Pharmacia) and an oligo-dT primer (Roche Molecular Biochemicals) on which Pol alone adds only a few bases. […] Compounds which elicited a decrease in fluorescence polarization were tested for the ability to inhibit DNA synthesis by Pol alone using the oligo-(dT)/poly-(dA) primer-template. […] After washes in sodium hydrogen phosphate, water and ethanol, they were counted in a liquid scintillation analyzer (Packard 1600 TR). […] After absorption, triplicate infected cultures were overlaid with 2% methyl cellulose in Dulbecco's modified Eagle's medium containing 5% newborn calf serum, 100 U penicillin G ml^−1, 100 ug streptomycin sulfate ml^−1 and various concentrations of the compounds which elicited a decrease in fluorescence polarization and incubated at 37° C. in a humidified CO2 incubator. Plaques were visualized by crystal violet staining at 2 to 3 days post infection and were counted on the following day [Coen et al. 1985]. […] After addition of 100 ul acidified ethanol (EtOH:HCl=99:1) to dissolve the crystal violet, the plates were read in the plate reader (Wallac). […]

herpes virus strain 17 = assay: Plaque reduction assay; assay type: cell-based, herpes simplex virus; conditions: Vero cells, data not shown
Protocol: as §2

[6] = test system: Pol/UL42 long-chain DNA synthesis (HSV Pol + HSV MBP-UL42); conditions: literature values [Digard et al. 1995; Bridges et al. 2000]; read-out: IC50 for specific inhibition of UL42 stimulated long-chain DNA synthesis; cited from earlier work

T2 sequence (P10226 1-339, stated change not applied): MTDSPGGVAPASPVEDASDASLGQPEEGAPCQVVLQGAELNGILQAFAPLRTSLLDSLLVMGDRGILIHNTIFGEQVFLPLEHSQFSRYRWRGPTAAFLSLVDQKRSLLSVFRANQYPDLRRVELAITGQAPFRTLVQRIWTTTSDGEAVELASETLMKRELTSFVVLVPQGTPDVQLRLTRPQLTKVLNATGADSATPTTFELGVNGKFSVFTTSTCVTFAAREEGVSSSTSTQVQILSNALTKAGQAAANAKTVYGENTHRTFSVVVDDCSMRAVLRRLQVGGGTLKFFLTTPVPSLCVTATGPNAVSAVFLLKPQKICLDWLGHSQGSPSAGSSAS
T1 sequence (P10226 1-339): as the sequence (P10226 1-339, stated change not applied) above
T4 sequence (P04293 whole entry N46K): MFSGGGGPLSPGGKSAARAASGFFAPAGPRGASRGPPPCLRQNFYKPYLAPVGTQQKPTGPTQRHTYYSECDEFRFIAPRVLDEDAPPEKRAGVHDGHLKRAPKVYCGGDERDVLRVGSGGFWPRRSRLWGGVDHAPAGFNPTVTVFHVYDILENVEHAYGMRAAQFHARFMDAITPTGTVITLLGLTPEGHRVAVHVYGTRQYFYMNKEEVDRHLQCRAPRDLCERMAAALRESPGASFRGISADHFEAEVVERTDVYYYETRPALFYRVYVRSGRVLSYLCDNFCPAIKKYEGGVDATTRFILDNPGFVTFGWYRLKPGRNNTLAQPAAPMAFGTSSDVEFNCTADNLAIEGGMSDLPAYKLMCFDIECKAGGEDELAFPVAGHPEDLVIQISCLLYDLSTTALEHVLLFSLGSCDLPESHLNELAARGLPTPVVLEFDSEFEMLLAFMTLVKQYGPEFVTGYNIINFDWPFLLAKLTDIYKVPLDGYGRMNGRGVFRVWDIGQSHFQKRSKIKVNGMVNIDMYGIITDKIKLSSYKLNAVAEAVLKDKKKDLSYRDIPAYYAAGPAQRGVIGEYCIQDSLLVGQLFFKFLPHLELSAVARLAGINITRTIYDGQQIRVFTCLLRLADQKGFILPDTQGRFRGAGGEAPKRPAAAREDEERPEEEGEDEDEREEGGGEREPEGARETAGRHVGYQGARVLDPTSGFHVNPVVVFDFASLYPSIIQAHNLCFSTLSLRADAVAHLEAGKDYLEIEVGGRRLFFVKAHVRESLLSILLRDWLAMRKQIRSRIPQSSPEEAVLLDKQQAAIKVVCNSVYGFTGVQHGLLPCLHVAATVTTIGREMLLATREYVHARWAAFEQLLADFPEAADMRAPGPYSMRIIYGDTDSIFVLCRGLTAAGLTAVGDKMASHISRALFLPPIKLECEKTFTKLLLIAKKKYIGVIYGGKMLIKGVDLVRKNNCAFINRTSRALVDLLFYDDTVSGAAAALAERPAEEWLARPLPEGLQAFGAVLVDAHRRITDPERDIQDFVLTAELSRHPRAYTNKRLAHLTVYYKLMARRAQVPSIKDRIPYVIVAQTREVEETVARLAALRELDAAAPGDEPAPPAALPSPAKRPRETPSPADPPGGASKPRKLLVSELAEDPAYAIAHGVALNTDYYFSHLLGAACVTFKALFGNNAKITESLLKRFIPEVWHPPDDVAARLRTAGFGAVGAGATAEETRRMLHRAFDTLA
T3 sequence (P04293 whole entry N46K): as above

Molecule	IC50 [1] [µM]	ability of UL42 to stimulate long-chain synthesis by Pol [1]	CC50 at 72 h [2] [µM]	IC50 [3] [µM]	dose dependent change in the FP signal [3]	Pol activity in absence of UL42 (HSV Pol [4])	IC50 (HSV Pol [5]) [µM]	EC90 (HSV strain 17) [µM]	plaque formation (herpes virus strain 17)	CC50 ([2]; vero cells, Vero cell line, read-out: 50% toxic dose) [µM]	IC50 [6] [µM]
Cc1ccc(C(C)C)cc1OCC(=O)NN=Cc1cc([N+](=O)[O-])ccc1O [BP1]	25	greatly reduced	20	35	dose dependent change	did not show a significant change	> 100	–	–	–	–
CC(C)C(C(=O)O)N1C(=O)/C(=C/c2ccc(Cl)cc2Cl)SC1=S (stereo not drawn) [BP3]	30	greatly reduced	200	12	dose dependent change	significantly reduced	25	–	–	–	–
O=C(Nc1cccc2nsnc12)c1cc(Br)ccc1NS(=O)(=O)c1ccc(Cl)cc1 [BP5]	26	greatly reduced	50	15	dose dependent change	did not show a significant change	> 100	0.4	completely abolish	50	–
CSCCC(C(=O)O)N1C(=O)/C(=C/c2ccc(Cl)cc2Cl)SC1=S (stereo not drawn) [BP9]	25	greatly reduced	200	48	dose dependent change	significantly reduced	25	–	–	–	–
CSCC[C@H](NC(=O)[C@H](CCCNC(=N)N)NC(=O)[C@H](CCCNC(=N)N)NC(=O)[C@@H](NC(=O)[C@H](CCC(=O)O)NC(=O)[C@H](CCC(=O)O)NC(=O)[C@H](C)NC(=O)[C@@H](NC(=O)[C@H](C)NC(=O)CNC(=O)[C@H](C)NC(=O)CNC(=O)[C@@H](NC(=O)[C@H](C)NC(=O)CNC(=O)[C@H](Cc1ccccc1)NC(=O)CNC(=O)[C@H](C)NC(=O)[C@@H](NC(=O)[C@H](CCCNC(=N)N)NC(=O)[C@H](CC(C)C)NC(=O)[C@H](CCCNC(=N)N)NC(=O)[C@H](C)NC(=O)[C@H](C)NC(=O)[C@@H](NC(=O)[C@H](CC(=O)O)NC(=O)[C@H](CC(=O)O)NC(C)=O)C(C)C)[C@@H](C)O)C(C)C)[C@@H](C)O)[C@@H](C)O)C(=O)N[C@@H](CC(C)C)C(=O)N[C@@H](Cc1c[nH]cn1)C(=O)N[C@@H](CCCNC(=N)N)C(=O)N[C@@H](C)C(=O)N[C@@H](Cc1ccccc1)C(=O)N[C@@H](CC(=O)O)C(=O)N[C@H](C(=O)N[C@@H](CC(C)C)C(=O)N[C@@H](C)C(N)=O)[C@@H](C)O [peptide A]	–	–	–	–	–	–	–	–	–	–	3
ATAEEETRRMLHRAFDTLA [peptide E, Ac-Ala-Thr-Ala-Glu-Glu-Glu-Thr-Arg-Arg-Met-Leu-His-Arg-Ala-Phe-Asp-Thr-Leu-Ala-NH2]	–	–	–	–	–	–	–	–	–	–	11
